According to US20080227770A1, “Benzoxazepine Compound” (Takeda Pharmaceutical Company Limited, priority 2003, published 2008):

melting point: 219 to 222 °C (dec.)
SMILES: COc1cccc([C@H]2O[C@H](Cc3ncc(CC(=O)O)s3)C(=O)N(CC(C)(C)CO)c3ccc(Cl)cc32)c1OC [Example 1, (2-{[(3R,5S)-7-chloro-5-(2,3-dimethoxyphenyl)-1-(3-hydroxy-2,2-dimethylpropyl)-2-oxo-1,2,3,5-tetrahydro-4,1-benzoxazepin-3-yl]methyl}-1,3-thiazol-5-yl)acetic acid]
